Results on one molecule are retold here after publication PMC4422956 (EJNMMI Research, 2014).

Assay [1] deals with T1, human DA D2L receptor (Homo sapiens, UniProt P14416).
T1 construct: gene DRD2; full-length D2L stably expressed in HEK 293 cells
Kind of assay: cAMP accumulation, HEK […] cells. To be noted: read-out: cAMP / Potency (converted). The assay is classed as cell-based. (In general: Cyclic AMP is a second messenger, typically raised through Gs and lowered through Gi signalling.)

Assay [2] addresses T1, human DA D2L receptor. The assay is described as follows: 3H-spiperone radioligand binding, membranes. To be noted: read-out: pK i D 2 -high (converted). The source says:
3H-spiperone radioligand binding, membranes on human DA D2L receptor

Molecules are shown by their SMILES.

T1 sequence (P14416 whole entry): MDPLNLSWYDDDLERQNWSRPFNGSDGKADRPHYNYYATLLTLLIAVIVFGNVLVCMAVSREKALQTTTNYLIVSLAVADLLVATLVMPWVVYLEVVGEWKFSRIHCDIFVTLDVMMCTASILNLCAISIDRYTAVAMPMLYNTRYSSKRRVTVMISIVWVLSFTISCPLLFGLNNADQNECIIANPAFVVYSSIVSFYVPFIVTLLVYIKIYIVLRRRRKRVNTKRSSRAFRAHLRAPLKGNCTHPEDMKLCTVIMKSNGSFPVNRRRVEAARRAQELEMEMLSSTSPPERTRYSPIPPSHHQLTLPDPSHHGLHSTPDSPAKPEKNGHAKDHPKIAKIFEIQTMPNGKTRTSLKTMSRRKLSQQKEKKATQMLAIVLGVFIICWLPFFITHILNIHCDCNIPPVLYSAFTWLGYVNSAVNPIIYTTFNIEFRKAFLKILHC

In the case of `CCN1CCC[C@H]1CNC(=O)c1c(OC)ccc(I)c1O` [IBZM], the EC50 in assay [1] was 0.832 nM. Further, the Ki in assay [2] was 102 nM.
